Legend:
TRα LBD = TRα LBD (Homo sapiens, UniProt P10827); assay: In vitro thyroid hormone receptor binding assay (TR-FRET coactivator assay), TRα LBD; settings: Biotin-SRC2-2, 1 hour at room temperature
Procedure: (§1) In Vitro Thyroid Hormone Receptor Binding Assay
(§2) The interaction between the compounds of present invention and Human Thyroid Receptor (TR) are evaluated by Time-Resolved Fluorescence Resonance Energy Transfer (TR-FRET) competition assay. FRET describes a radiation-free energy transfer between two chromophores: a donor fluorophore in its excited state can transfer energy to an acceptor fluorophore in close proximity (typically <10 nm). In contrast to standard FRET, TR-FRET unites time-resolved fluorescence (TRF) and the FRET principle. TRF use a long-lifetime lanthanide chelate as the donor species, while lanthanide chelates are unique in that their excited-state lifetime can be on the order of a millisecond or longer. Suitable neighbors for FRET are known in the art and can be obtained. The assay was adopted from the manual of LanthaScreen™ TR-FRET Thyroid Receptor beta Coactivator Assay kit from Invitrogen.
(§3) The assay is performed in following steps: first, prepare reaction buffer containing 50mMTris-HCl (pH7.4) with 100 mM NaCl, 1mMEDTA, 50mMKF, 1mMDTT, 1mMMgCl2, 10% glycerol, 0.01% NP-40, 0.1% BSA. Second, use the buffer to prepare the appropriate dilution series of the test and reference compounds. The3,3′,5-Triiodothyronine (T3) was used aspositive control agonist. Third, add 5 μl of 4× compoundserial dilution and 5 μl TRa LBD (4×, 4 nM) (or 5 μl TRβ LBD, 4×, 2 nM) into 384-well plate (784075, greiner). Then, add 10 μl of a solution consist of 400 nM Biotin-SRC2-2 (2×) and anti-GST Eu (1:200, 2×) and 50 nM anti-biotin-d2 (2×) in 1× reaction buffer to initiate the reaction. Centrifuge the plates at 1000 g for 1 min and then incubate 1 hour at room temperature protected from light. Finally, read the plate at wavelengths of 665 nm and 615nmonEnvision2104 plate reader.
(§4) A ratio (Ratio665 nm/615 nm−Ratiobackground) is calculated for each well. Percentage of activity, as well as EC50 was calculated. Effect-dose curve was plotted. Relative selectivity was calculated as the ratio of EC50TRα/EC50TRβ.

TRβ LBD = target: T1, TRβ LBD (Homo sapiens, UniProt P10828); assay: In vitro thyroid hormone receptor binding assay (TR-FRET coactivator assay), TRβ LBD; settings: for EC50: TR-FRET, TRβ LBD, Biotin-SRC2-2, 1 hour at room temperature; for Relative Selectivity TR-α/TR-β: ratio of EC50 TRα/EC50 TRβ, TR-FRET assay
T1 construct: (or 5 μl TRβ LBD, 4×, 2 nM)
T1 sequence (P10828 217-461 limits assumed): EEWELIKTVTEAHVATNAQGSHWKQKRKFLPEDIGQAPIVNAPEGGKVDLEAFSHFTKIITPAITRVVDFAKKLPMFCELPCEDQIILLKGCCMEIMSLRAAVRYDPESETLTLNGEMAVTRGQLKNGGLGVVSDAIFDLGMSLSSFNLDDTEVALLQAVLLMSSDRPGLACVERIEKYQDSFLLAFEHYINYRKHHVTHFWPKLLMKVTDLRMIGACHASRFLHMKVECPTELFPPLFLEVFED
Procedure: as §1, §2, §3, §4

Chain of TRα LBD (P10827 163-410 isoform P10827-2 limits assumed, other chains not shown): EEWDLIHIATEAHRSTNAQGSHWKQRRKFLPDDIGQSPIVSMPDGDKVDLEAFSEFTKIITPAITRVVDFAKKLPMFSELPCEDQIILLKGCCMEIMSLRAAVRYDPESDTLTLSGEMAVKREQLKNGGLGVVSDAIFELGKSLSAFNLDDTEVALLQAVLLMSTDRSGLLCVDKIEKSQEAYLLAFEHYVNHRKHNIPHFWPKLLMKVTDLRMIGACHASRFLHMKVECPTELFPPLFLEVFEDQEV

| Structure (SMILES) | EC50 (TRα LBD) [µM] | EC50 (TRβ LBD) [µM] | Relative Selectivity TR-α/TR-β (TRβ LBD) |
| --- | --- | --- | --- |
| Cc1cc(OCC(=O)NS(C)(=O)=O)cc(C)c1Cc1ccc(O)c(C(C)C)c1 [Compound I1, 2-(4-(4-hydroxy-3-isopropylbenzyl)-3,5-dimethylphenoxy)-N-(methylsulfonyl)acetamide] | 0.00677 | 0.0173 | 0.3915 |
| Cc1cc(OCc2cc(O)no2)cc(C)c1Cc1ccc(O)c(C(C)C)c1 [Compound I2, 5-((4-(4-hydroxy-3-isopropylbenzyl)-3,5-dimethylphenoxy)methyl) isoxazol-3-ol] | 0.00737 | 0.0162 | 0.4560 |
| CC(C)c1cc(Oc2ccc(-n3nc(C#N)c(=O)[nH]c3=O)cc2Cl)cnc1O [Compound I5, 2-(3-chloro-4-((5-isopropyl-6-oxo-1,6-dihydropyridin-3-yl)oxy)phenyl)-3,5-dioxo-2,3,4,5-tetrahydro-1,2,4-triazine-6-carbonitrile] | > 10 | > 10 |  |
| Cc1cc(-n2nc(C#N)c(=O)[nH]c2=O)cc(C)c1Oc1cnc(O)c(C(C)C)c1 [Compound I6, 2-(4-((5-isopropyl-6-oxo-1,6-dihydropyridin-3-yl)oxy)-3,5-dimethylphenyl)-3,5-dioxo-2,3,4,5-tetrahydro-1,2,4-triazine-6-carbonitrile] | > 10 | 1.98 | >5.05 |
| CC(C)c1cc(Oc2c(F)cc(-n3nc(C#N)c(=O)[nH]c3=O)cc2F)c[nH]c1=O [Compound I7, 2-(3,5-difluoro-4-((5-isopropyl-6-oxo-1,6-dihydropyridin-3-yl)oxy)phenyl)-3,5-dioxo-2,3,4,5-tetrahydro-1,2,4-triazine-6-carbonitrile] | > 10 | > 10 |  |
| Cc1c[nH]c2ncc(Oc3c(Cl)cc(-n4nc(C#N)c(=O)[nH]c4=O)cc3Cl)cc12 [Compound I8, 2-(3,5-dichloro-4-((3-methyl-1H-pyrrolo[2,3-b]pyridin-5-yl)oxy)phenyl)-3,5-dioxo-2,3,4,5-tetrahydro-1,2,4-triazine-6-carbonitrile] | > 10 | 2.89 | >3.46 |
| N#Cc1nn(-c2cc(Cl)c(Oc3cnc4[nH]ccc4c3)c(Cl)c2)c(=O)[nH]c1=O [Compound I9, 2-(4-((1H-pyrrolo[2,3-b]pyridin-5-yl)oxy)-3,5-dichlorophenyl)-3,5-dioxo-2,3,4,5-tetrahydr o-1,2,4-triazine-6-carbonitrile] | > 10 | > 10 |  |
| N#Cc1nn(-c2cc(Cl)c(Oc3cnc(O)c(C4CC4)c3)c(Cl)c2)c(=O)[nH]c1=O [Compound I11, 2-(3,5-dichloro-4-((5-cyclopropyl-6-oxo-1,6-dihydropyridin-3-yl)oxy)phenyl)-3,5-dioxo-2,3,4,5-tetrahydro-1,2,4-triazine-6-carbonitrile] | > 10 | 0.754 |  |
| N#Cc1nn(-c2cc(Cl)c(Oc3ccc4[nH]cnc4c3)c(Cl)c2)c(=O)[nH]c1=O [Compound I13, 2-(4-((1H-benzo[d]imidazol-5-yl)oxy)-3,5-dichlorophenyl)-3,5-dioxo-2,3,4,5-tetrahydro-1,2,4-triazine-6-carbonitrile] | 12.2 | 2.61 | 4.67 |
| Cn1c(=O)[nH]c2ccc(Oc3c(Cl)cc(-n4nc(C#N)c(=O)[nH]c4=O)cc3Cl)cc21 [Compound I14, 2-(3,5-dichloro-4-((3-methyl-2-oxo-2,3-dihydro-1H-benzo[d]imidazol-5-yl)oxy)phenyl)-3,5-dioxo-2,3,4,5-tetrahydro-1,2,4-triazine-6-carbonitrile] | 0.172 | 0.046 | 3.70 |
| N#Cc1nn(-c2cc(Cl)c(Oc3ccc4[nH]c(=O)[nH]c4c3)c(Cl)c2)c(=O)[nH]c1=O [Compound I15, 2-(3,5-dichloro-4-((2-oxo-2,3-dihydro-1H-benzo[d]imidazol-5-yl)oxy)phenyl)-3,5-dioxo-2,3,4,5-tetrahydro-1,2,4-triazine-6-carbonitrile] | 1.79 | 0.854 | 2.09 |
| N#Cc1nn(-c2cc(Cl)c(Oc3ccc4[nH]ccc4c3)c(Cl)c2)c(=O)[nH]c1=O [Compound I16, 2-(4-((1H-indol-5-yl)oxy)-3,5-dichlorophenyl)-3,5-dioxo-2,3,4,5-tetrahydro-1,2,4-triazine-6-carbonitrile] | 0.532 | 0.125 | 4.25 |
| N#Cc1nn(-c2cc(Cl)c(Oc3ccc4cc[nH]c4c3)c(Cl)c2)c(=O)[nH]c1=O [Compound I17, 2-(4-((1H-indol-6-yl)oxy)-3,5-dichlorophenyl)-3,5-dioxo-2,3,4,5-tetrahydro-1,2,4-triazine-6-arbonitrile] | 1.02 | 0.135 | 7.50 |
| CC1(C)C(=O)Nc2ccc(Oc3c(Cl)cc(-n4nc(C#N)c(=O)[nH]c4=O)cc3Cl)cc21 [Compound I19, 2-(3,5-dichloro-4-((3,3-dimethyl-2-oxoindolin-5-yl)oxy)phenyl)-3,5-dioxo-2,3,4,5-tetrahydr 0-1,2,4-triazine-6-carbonitrile] | 0.024 | 0.006 | 3.83 |
| N#Cc1nn(-c2cc(Cl)c(Oc3ccc4[nH]c(=O)oc4c3)c(Cl)c2)c(=O)[nH]c1=O [Compound I20, 2-(3,5-dichloro-4-((2-oxo-2,3-dihydrobenzo[d]oxazol-6-yl)oxy)phenyl)-3,5-dioxo-2,3,4,5-tetrahydro-1,2,4-triazine-6-carbonitrile] | 8.37 | 2.09 | 4.01 |
| Cc1c[nH]c2ccc(Cc3c(Cl)cc(-n4nc(C#N)c(=O)[nH]c4=O)cc3Cl)cc12 [Compound I21, 2-(3,5-dichloro-4-((3-methyl-1H-indol-5-yl)methyl)phenyl)-3,5-dioxo-2,3,4,5-tetrahydro-1,2,4-triazine-6-carbonitrile] | 1.04 | 0.086 | 12.11 |
| CC(=O)OCn1cc(Oc2c(Cl)cc(-n3nc(C#N)c(=O)[nH]c3=O)cc2Cl)cc(C(C)C)c1=O [Compound I24, (5-(2,6-dichloro-4-(6-cyano-3,5-dioxo-4,5-dihydro-1,2,4-triazin-2 (3H)-yl)phenoxy)-3-isopropyl-2-oxopyridin-1 (2H)-yl)methyl acetate] | > 100 | 0.273 | 366 |
| CC(C)c1nc(Oc2c(Cl)cc(-n3nc(C#N)c(=O)[nH]c3=O)cc2Cl)c[nH]c1=O [Compound I27, 2-(3,5-dichloro-4-((6-isopropyl-5-oxo-4,5-dihydropyrazin-2-yl)oxy)phenyl)-3,5-dioxo-2,3,4,5-tetrahydro-1,2,4-triazine-6-carbonitrile] | 6.41 | 2.26 | 2.83 |
| CC(C)n1cc(Oc2c(Cl)cc(-n3nc(C#N)c(=O)[nH]c3=O)cc2Cl)c(=O)[nH]c1=O [Compound I28, 2-(3,5-dichloro-4-((1-isopropyl-2,4-dioxo-1,2,3,4-tetrahydropyrimidin-5-yl)oxy)phenyl)-3,5-dioxo-2,3,4,5-tetrahydro-1,2,4-triazine-6-carbonitrile] | > 100 | > 10 |  |

Reference: patent US12338206B2, “Compounds and their uses as thyroid hormone receptor agonists” (Nanjing Ruijie Pharma Co., Ltd., priority 2020, dated 2025)
